Measured values published in patent US20260199223A1, “USE OF AN AUREOBASIDIUM PULLULANS EXTRACT ALONE OR IN COMBINATION WITH A C-GLYCOSIDE AS A COSMETIC ACTIVE PRINCIPLE” (L'OREAL, priority 2022, published 2026).
Each block holds one compound with its values, some of them ahead of it.

Experiments:
Type in all cases: cell-based, human
occludin = assay: Expression of occludin in NHEK, in situ immunofluorescence; conditions: 144 hours
Experimental: (§1) The effects of the Aureobasidium pullulans extract and C-β-D-xylopyranoside-2-hydroxypropane (C-Xyloside, Pro-Xylane™) and a combination thereof were evaluated on normal human epidermal keratinocytes (NHEK) by analysing the expression of markers by in situ immunofluorescence labelling and image analysis: • expression of the differentiation markers: Transglutaminase K (TGK), filaggrin and involucrin, • expression of the tight junction proteins: claudin-1, zonula occludens-1 (ZO-1) and occludin,
(§2) The compounds were tested at a non-cytotoxic concentration. • Normal human keratinocytes: NHEK, Bioalternatives reference K341 used at third passage. • Culture conditions: 37° C., 5% CO2 • Culture medium: Keratinocyte SFM (serum free medium) supplemented with Epidermal Growth Factor Pituitary extract • Test medium: Keratinocyte SFM (serum free medium)
The keratinocytes were seeded in 96-well plates and cultured in culture medium for 24 hours. […]
(§3) The labelling was quantified by measuring the fluorescence intensity and normalizing the fluorescence intensity relative to the total number of cells (Digital data integration with Developer Toolbox 1.5 software, GE Healthcare).

involucrin [1] = assay: Expression of involucrin in NHEK, in situ immunofluorescence; conditions: 144 hours
Experimental: as §1, §2
The keratinocytes were seeded in 96-well plates and cultured in culture medium for 24 hours. The medium was then replaced with a test medium containing or not containing (control) the test compounds, the combination or the reference compound and the cells were incubated for 144 hours with a repeat treatment after 72 hours.
(§4) The cells were rinsed with PBS solution, fixed and permeabilized. The cells were then labelled using a specific primary antibody (Table 13).
(§5) Image acquisition (five photos/well) was performed using an INCell Analyzer™ 2200 (GE Healthcare, x20 objective).
as §3

filaggrin [2] = assay: Expression of filaggrin in NHEK, in situ immunofluorescence; conditions: 72 hours
Experimental: as §1, §2
The keratinocytes were seeded in a 96-well plate and grown in culture medium for 192 hours with renewal of the culture medium after 24 and 96 hours. The medium was then replaced with a test medium containing or not containing (control) the test compounds, the combination or the reference compound and the cells were incubated for 72 hours.
as §4, §5, §3

claudin-1 [3] = assay: Expression of claudin-1 in NHEK, in situ immunofluorescence; conditions: 72 hours
Experimental: as §1, §2
(§6) The keratinocytes were seeded in 96-well plates and cultured in culture medium for 24 hours. The medium was then replaced with a test medium containing or not containing (control) the test compounds, the combination or the reference compound and the cells were incubated for 72 hours.
as §4, §5, §3

[4] = test system: zonula occludens-1 (ZO-1); assay: Expression of ZO-1 in NHEK, in situ immunofluorescence; conditions: 72 hours
Experimental: as §1, §2, §6, §4, §5, §3

Transglutaminase K (TGK) = assay: Expression of TGK in NHEK, in situ immunofluorescence; conditions: 72 hours
Experimental: as §1, §2, §6, §4, §5, §3

Collagen IV = assay: Expression of collagen IV in NHEK, in situ immunofluorescence; conditions: 72 hours
Experimental: as §1
The compounds were tested at a non-cytotoxic concentration. • Normal human keratinocytes: NHEK, Bioalternatives reference K341 used at third passage. • Culture conditions: 37° C., 5% CO2 • Culture medium: Keratinocyte SFM (serum free medium) supplemented with Epidermal Growth Factor Pituitary extract • Test medium: Keratinocyte SFM (serum free medium) […]
as §3

TGM1 = assay: Quantitative PCR analysis of TGM1 expression in reconstructed epidermis; conditions: QPCR, 250 μm, control = 100
Experimental: (§7) Human keratinocytes were seeded onto inserts and then incubated at 37° C. in an atmosphere containing 5% CO2. Between the second and ninth day of incubation, the culture medium was changed every two days. […] On day 17, the reconstructed skins were then recovered and processed in different ways depending on the analysis test performed, namely: • for immunohistofluorescence analysis, the reconstructed skins were recovered, fixed, dehydrated and embedded in paraffin. 4 μm sections were then produced using a microtome (Leica). • for a QPCR test, the reconstructed skins were recovered and the RNAs were extracted in their entirety. For this analysis, the RNAs were reverse-transcribed and the complementary DNAs obtained were analysed via a quantitative PCR technique. The mRNAs of the RPS18, GAPDH and GUSB proteins, the reference internal controls, were analysed in parallel with the mRNAs of ZO-1, CK10, involucrin and TGM1. Quantification of fluorescence incorporation (SYBR Green) was measured continuously using a LightCycler LC480 thermal cycler (Roche) and Ct analysis (relative quantification) was performed using the LC480 software (Roche).

involucrin [5] = assay: Quantitative PCR analysis of involucrin expression in reconstructed epidermis; conditions: QPCR, 250 μm, control = 100
Experimental: as §7

claudin-1 [6] = assay: Claudin-1 synthesis by immunohistofluorescence in reconstructed epidermis
Experimental: (§8) Human keratinocytes were seeded onto inserts and then incubated at 37° C. in an atmosphere containing 5% CO2. Between the second and ninth day of incubation, the culture medium was changed every two days. […] On day 17, the reconstructed skins were then recovered and processed in different ways depending on the analysis test performed, namely: • for immunohistofluorescence analysis, the reconstructed skins were recovered, fixed, dehydrated and embedded in paraffin. 4 μm sections were then produced using a microtome (Leica). • for a QPCR test, the reconstructed skins were recovered and the RNAs were extracted in their entirety. The following primary antibodies were used for this test: • Mouse anti-filaggrin monoclonal antibody • Rabbit anti-loricrin polyclonal antibody • Mouse anti-claudin-1 monoclonal antibody The secondary antibodies used were as follows: • Alexa Fluor® 488-coupled rabbit anti-IgG antibody • Alexa Fluor® 488-coupled mouse anti-IgG antibody Visualization was performed using an IX 70 microscope (Olympus) coupled to an image analysis system (NIS-Elements software, Nikon). The content of the various markers synthesized was proportional to the intensity of the green fluorescence present on the reconstructed epidermis samples. Quantification was performed by means of an image analysis script in Python language. The results are expressed in arbitrary units (AU).

ZO-1 = assay: Quantitative PCR analysis of ZO-1 expression in reconstructed epidermis; conditions: QPCR, 250 μm, control = 100
Experimental: as §7

filaggrin [7] = assay: Filaggrin synthesis by immunohistofluorescence in reconstructed epidermis
Experimental: as §8

loricrin = assay: Loricrin synthesis by immunohistofluorescence in reconstructed epidermis; conditions: day 9 to day 17, 250 μm
Experimental: as §8

CK10 = assay: Quantitative PCR analysis of CK10 expression in reconstructed epidermis; conditions: QPCR, 250 μm, control = 100
Experimental: as §7

- Expression of TGK, Integration fluo (Transglutaminase K (TGK); 0.03%): 124 % of control
- Expression of TGK, Integration fluo (Transglutaminase K (TGK); 0.1%): 158 % of control
- Expression of TGK, Integration fluo (Transglutaminase K (TGK); 0.3%): 235 % of control
Compound: CC(O)C[C@@H]1OC[C@@H](O)[C@H](O)[C@H]1O (stereo partly drawn) [C-β-D-xylopyranoside-2-hydroxypropane]
- Expression of occludin, Integration fluo (occludin; 0.3%): 78 % of control
- Expression of Involucrin, Integration fluo (involucrin [1]; 0.1%): 109 % of control
- Expression of Involucrin, Integration fluo (involucrin [1]; 0.3%): 110 % of control
- Expression of Filaggrin, Integration fluo (filaggrin [2]; 0.1%): 114 % of control
- Expression of Filaggrin, Integration fluo (filaggrin [2]; 0.3%): 127 % of control
- Expression of Claudin-1, Integration fluo (claudin-1 [3]; 0.03%): 184 % of control
- Expression of Claudin-1, Integration fluo (claudin-1 [3]; 0.1%): 204 % of control
- Expression of ZO-1, Integration fluo ([4]; 0.03%): 111 % of control
- Expression of ZO-1, Integration fluo ([4]; 0.1%): 124 % of control
- Expression of ZO-1, Integration fluo ([4]; 0.3%): 127 % of control
- Expression of Collagen IV, Integration fluo (Collagen IV; 0.3%): 120 % of control

- Expression of TGK, Integration fluo (Transglutaminase K (TGK); 1.5 mM): 903 % of control
Compound: [Ca+2].[Cl-].[Cl-] [CaCl2]
- Expression of occludin, Integration fluo (occludin; 1.5 mM): 296 % of control
- Expression of Involucrin, Integration fluo (involucrin [1]; 1.5 mM): 126 % of control
- Expression of Filaggrin, Integration fluo (filaggrin [2]; 1.5 mM): 159 % of control
- Expression of Claudin-1, Integration fluo (claudin-1 [3]; 1.5 mM): 200 % of control
- Expression of ZO-1, Integration fluo ([4]; 1.5 mM): 119 % of control

Compound: NC(=O)c1cccnc1 [Niacinamide]
- Expression of TGMI (%) (TGM1): 86%
- Expression of involucrin (%) (involucrin [5]): 78%
- Efficacy/control (%), claudin-1 (claudin-1 [6]; 250 μm): +10%
- Synthesis of claudin-1 (claudin-1 [6]; day 9 to day 17, 250 μm): 266 × 10^3 AU
- Expression of ZO-1 (%) (ZO-1): 91%
- Efficacy/control (%), filaggrin (filaggrin [7]; 250 μm): +42%
- Synthesis of filaggrin (filaggrin [7]; day 9 to day 17, 250 μm): 941 × 10^3 AU
- Synthesis of loricin (loricrin): 214 × 10^3 AU
- Expression of CK10 (%) (CK10): 100%

Compound: TGF-β: positive control for expression of the marker Collagen IV, R&D Systems ref. 240-B
- Expression of Collagen IV, Integration fluo (Collagen IV; 10 ng/ml): 176 % of control
